Measured values as given in patent US20080125467A1, “Amino-Containing Compounds Which Inhibit Memapsin 2 Beta-Secretase Activity and Methods of Use Thereof” (priority 2004, published 2008).
pIC50: −log10 of the molar value.

Target: T1, memapsin 2 (Cricetulus griseus, UniProt G3IAK4)
T1 construct: endogenous in cells; host or cells: Chinese hamster ovary cells over-expressing human APP695 (London + Swedish)
Test: Cellular Aβ IC50 determination (Aβ40 sandwich ELISA)
Assay type: cell-based
Conditions: Chinese hamster ovary cells over-expressing human APP695 with London and Swedish mutations, 24 h
Procedure: The potency of compounds against memapsin 2 activity was determined in a cellular assay of Aβ production. […] Chinese hamster ovary cells that over-express human APP695 with the London and Swedish mutations were seeded in multi-well plates at 10% confluency. Compounds were dissolved in DMSO to concentrations near 1 mM, and diluted into culture media to a final concentration near 4 μM (final 0.4% DMSO). Compounds were diluted serially and applied to cells in multi-well plates 48 h after seeding. Incubation was continued in 5% CO2 at 37 degrees C. for 24 h. Aliquots were removed and assayed for Aβ40 content using a sandwich ELISA (BioSource International). Amount of Aβ40 over the range of concentration of compounds, relative to control incubations, were fit to a 4-parameter IC50 model.

T1 sequence (G3IAK4 22-501): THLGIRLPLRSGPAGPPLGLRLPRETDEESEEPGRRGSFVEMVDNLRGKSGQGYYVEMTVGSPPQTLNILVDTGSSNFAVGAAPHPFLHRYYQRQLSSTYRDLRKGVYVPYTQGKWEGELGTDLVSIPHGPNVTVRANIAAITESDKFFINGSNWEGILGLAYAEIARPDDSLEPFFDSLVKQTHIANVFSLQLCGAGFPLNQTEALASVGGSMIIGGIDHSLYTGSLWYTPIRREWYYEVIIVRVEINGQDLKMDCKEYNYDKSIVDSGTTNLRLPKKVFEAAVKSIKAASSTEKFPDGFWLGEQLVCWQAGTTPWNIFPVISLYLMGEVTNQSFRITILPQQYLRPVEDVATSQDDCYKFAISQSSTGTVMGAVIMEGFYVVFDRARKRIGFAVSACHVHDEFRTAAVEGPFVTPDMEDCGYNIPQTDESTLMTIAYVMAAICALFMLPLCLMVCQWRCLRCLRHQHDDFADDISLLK

SMILES | pIC50
Cc1csc(COC(=O)N[C@@H](CNC(=O)OC(C)(C)C)C(=O)N[C@@H](CC(C)C)[C@@H](O)C[C@@H](C)C(=O)N[C@H](C(=O)NCC(C)C)C(C)C)n1 | < 4.00
CCC(Cn1nc(C)cc1C)C(=O)NC(CNC(=O)OCCF)C(=O)NC(CC(C)C)C(O)CC(C)C(=O)NC(C(=O)NCC(C)C)C(C)C (stereo not drawn) [2-fluoroethyl 2-(2-((3,5-dimethyl-1H-pyrazol-1-yl)methyl)butanamido)-3-(5-hydroxy-8-(1-(isobutylamino)-3-methyl-1-oxobutan-2-ylamino)-2,7-dimethyl-8-oxooctan-4-ylamino)-3-oxopropylcarbamate] | 4.00 to 5.22
Cc1csc(CC(C)C(=O)NC(CN(C)S(C)(=O)=O)C(=O)NC(CC(C)C)C(O)CC(C)C(=O)NC(C(=O)NCC(C)C)C(C)C)n1 (stereo not drawn) [4-hydroxy-N-(1-(isobutylamino)-3-methyl-1-oxobutan-2-yl)-2,7-dimethyl-5-(2-(2-methyl-3-(4-methylthiazol-2-yl)propanamido)-3-(N-methylmethylsulfonamido)propanamido)octanamide] | 4.00 to 5.22
CCC(Cc1nc(C)cs1)C(=O)NC(CN(C)OC)C(=O)NC(CC(C)C)C(O)CC(C)C(=O)NC(C(=O)NCC(C)C)C(C)C (stereo not drawn) [4-hydroxy-N-(1-(isobutylamino)-3-methyl-1-oxobutan-2-yl)-5-(3-(methoxy(methyl)amino)-2-(2-((4-methylthiazol-2-yl)methyl)butanamido)propanamido)-2,7-dimethyloctanamide] | < 4.00
Cc1csc(CC(C)C(=O)NC(CNS(C)(=O)=O)C(=O)NC(CC(C)C)C(O)CC(C)C(=O)NC(C(=O)NCC(C)C)C(C)C)n1 (stereo not drawn) [4-hydroxy-N-(1-(isobutylamino)-3-methyl-1-oxobutan-2-yl)propanamido)-3-(methylsulfonamido)propanamido)octanamide] | > 5.22
Cc1csc(CC(C)C(=O)NC(CN)C(=O)NC(CC(C)C)C(O)CC(C)C(=O)NC(C(=O)NCC(C)C)C(C)C)n1 (stereo not drawn) [5-(3-amino-2-(2-methyl-3-(4-methylthiazol-2-yl)propanamido)propanamido)-4-hydroxy-N-(1-(isobutylamino)-3-methyl-1-oxobutan-2-yl)-2,7-dimethyloctanamide] | 4.00 to 5.22
Cc1csc(COC(=O)NCC(NC(=O)C(C)Cc2nc(C)cs2)C(=O)NC(CC(C)C)C(O)CC(C)C(=O)NC(C(=O)NCC(C)C)C(C)C)n1 (stereo not drawn) [(4-methylthiazol-2-yl)methyl 3-(5-hydroxy-8-(1-(isobutylamino)-3-methyl-1-oxobutan-2-ylamino)-2,7-dimethyl-8-oxooctan-4-ylamino)-2-(2-methyl-3-(4-methylthiazol-2-yl)propanamido)-3-oxopropylcarbamate] | > 5.22
CCC(Cc1nc(C)cs1)C(=O)NC(CNC(=O)OC(C)C)C(=O)NC(CC(C)C)C(O)CC(C)C(=O)NC(C(=O)NCC(C)C)C(C)C (stereo not drawn) [isopropyl 3-(5-hydroxy-8-(1-(isobutylamino)-3-methyl-1-oxobutan-2-ylamino)-2,7-dimethyl-8-oxooctan-4-ylamino)-2-(2-((4-methylthiazol-2-yl)methyl)butanamido)-3-oxopropylcarbamate] | > 5.22
CCC(Cn1nc(C)cc1C)C(=O)NC(CNC(=O)OC(C)(C)C)C(=O)NC(CC(C)C)C(O)CC(C)C(=O)NC(C(=O)NCC(F)(F)F)C(C)C (stereo not drawn) [tert-butyl 2-(2-((3,5-dimethyl-1H-pyrazol-1-yl)methyl)butanamido)-3-(5-hydroxy-2,7-dimethyl-8-(3-methyl-1-oxo-1-(2,2,2-trifluoroethylamino)butan-2-ylamino)-8-oxooctan-4-ylamino)-3-oxopropylcarbamate] | 4.00 to 5.22
CCC(Cn1nc(C)cc1C)C(=O)NC(CNC(=O)OC(C)(C)C)C(=O)NC(CC(C)C)C(O)CC(C)C(=O)NC(C(=O)NCc1ccccn1)C(C)C (stereo not drawn) [tert-butyl 2-(2-((3,5-dimethyl-1H-pyrazol-1-yl)methyl)butanamido)-3-(5-hydroxy-2,7-dimethyl-8-(3-methyl-1-oxo-1-(pyridin-2-ylmethylamino)butan-2-ylamino)-8-oxooctan-4-ylamino)-3-oxopropylcarbamate] | 4.00 to 5.22
CCC(Cn1nc(C)cc1C)C(=O)NC(CNC(=O)OC(C)(C)C)C(=O)NC(CC(C)C)C(O)CC(C)C(=O)NC(C(=O)NCc1ccncc1)C(C)C (stereo not drawn) [tert-butyl 2-(2-((3,5-dimethyl-1H-pyrazol-1-yl)methyl)butanamido)-3-(5-hydroxy-2,7-dimethyl-8-(3-methyl-1-oxo-1-(pyridin-4-ylmethylamino)butan-2-ylamino)-8-oxooctan-4-ylamino)-3-oxopropylcarbamate] | > 5.22
CCC(Cn1nc(C)cc1C)C(=O)NC(CNC(=O)OC(C)(C)C)C(=O)NC(CC(C)C)C(O)CC(C)C(=O)NC(C(=O)NCC(C)C)C(C)C (stereo not drawn) [tert-butyl 2-(2-((3,5-dimethyl-1H-pyrazol-1-yl)methyl)butanamido)-3-(5-hydroxy-8-(1-(isobutylamino)-3-methyl-1-oxobutan-2-ylamino)-2,7-dimethyl-8-oxooctan-4-ylamino)-3-oxopropylcarbamate] | > 5.22
Cc1cc(C)n(CC(N=[N+]=[N-])C(=O)NC(CNC(=O)OC(C)(C)C)C(=O)NC(CC(C)C)C(O)CC(C)C(=O)NC(C(=O)NCC(C)C)C(C)C)n1 (stereo not drawn) [tert-butyl 2-(2-azido-3-(3,5-dimethyl-1H-pyrazol-1-yl)propanamido)-3-(5-hydroxy-8-(1-(isobutylamino)-3-methyl-1-oxobutan-2-ylamino)-2,7-dimethyl-8-oxooctan-4-ylamino)-3-oxopropylcarbamate] | 4.00 to 5.22
COC(Cn1nc(C)cc1C)C(=O)NC(CNC(=O)OC(C)(C)C)C(=O)NC(CC(C)C)C(O)CC(C)C(=O)NC(C(=O)NCC(C)C)C(C)C (stereo not drawn) [tert-butyl 2-(3-(3,5-dimethyl-1H-pyrazol-1-yl)-2-methoxypropanamido)-3-(5-hydroxy-8-(1-(isobutylamino)-3-methyl-1-oxobutan-2-ylamino)-2,7-dimethyl-8-oxooctan-4-ylamino)-3-oxopropylcarbamate] | < 4.00
Cc1csc(CC(C)C(=O)NC(CNC(=O)OC(C)(C)C)C(=O)NC(Cc2cc(F)cc(F)c2)C(O)CC(C)C(=O)NC(C(=O)NCC(C)C)C(C)C)n1 (stereo not drawn) [tert-butyl 3-(1-(3,5-difluorophenyl)-3-hydroxy-6-(1-(isobutylamino)-3-methyl-1-oxobutan-2-ylamino)-5-methyl-6-oxohexan-2-ylamino)-2-(2-methyl-3-(4-methylthiazol-2-yl)propanamido)-3-oxopropylcarbamate] | 4.00 to 5.22
Cc1csc(CC(C)C(=O)NC(CNC(=O)OC(C)(C)C)C(=O)NC(Cc2ccccc2)C(O)CC(C)C(=O)NC(C(=O)NCC(C)C)C(C)C)n1 (stereo not drawn) [tert-butyl 3-(3-hydroxy-6-(1-(isobutylamino)-3-methyl-1-oxobutan-2-ylamino)-5-methyl-6-oxo-1-phenylhexan-2-ylamino)-2-(2-methyl-3-(4-methylthiazol-2-yl)propanamido)-3-oxopropylcarbamate] | 4.00 to 5.22

Other lines, results leading:

pIC50 | SMILES
< 4.00 | Cc1csc(COC(=O)N[C@@H](CNS(C)(=O)=O)C(=O)N[C@@H](CC(C)C)[C@@H](O)C[C@@H](C)C(=O)N[C@H](C(=O)NCC(C)C)C(C)C)n1
> 5.22 | COC(=O)NC[C@H](NC(=O)OCc1nc(C)cs1)C(=O)N[C@@H](CC(C)C)[C@@H](O)C[C@@H](C)C(=O)N[C@H](C(=O)NCC(C)C)C(C)C
4.00 to 5.22 | Cc1csc(COC(=O)N[C@@H](CNC(=O)O[C@H]2CCOC2)C(=O)N[C@@H](CC(C)C)[C@@H](O)C[C@@H](C)C(=O)N[C@H](C(=O)NCC(C)C)C(C)C)n1
> 5.22 | COCCOC(=O)NCC(NC(=O)C(C)Cc1nc(C)cs1)C(=O)NC(CC(C)C)C(O)CC(C)C(=O)NC(C(=O)NCC(C)C)C(C)C (stereo not drawn) [2-methoxyethyl 3-(5-hydroxy-8-(1-(isobutylamino)-3-methyl-1-oxobutan-2-ylamino)-2,7-dimethyl-8-oxooctan-4-ylamino)-2-(2-methyl-3-(4-methylthiazol-2-yl)propanamido)-3-oxopropylcarbamate]
4.00 to 5.22 | CC(=O)NCC(NC(=O)C(C)Cc1nc(C)cs1)C(=O)NC(CC(C)C)C(O)CC(C)C(=O)NC(C(=O)NCC(C)C)C(C)C (stereo not drawn) [5-(3-acetamido-2-(2-methyl-3-(4-methylthiazol-2-yl)propanamido)propanamido)-4-hydroxy-N-(1-(isobutylamino)-3-methyl-1-oxobutan-2-yl)-2,7-dimethyloctanamide]
> 5.22 | COC(=O)NCC(NC(=O)C(C)Cc1nc(C)cs1)C(=O)NC(CC(C)C)C(O)CC(C)C(=O)NC(C(=O)NCC(C)C)C(C)C (stereo not drawn) [methyl 3-(5-hydroxy-8-(1-(isobutylamino)-3-methyl-1-oxobutan-2-ylamino)-2,7-dimethyl-8-oxooctan-4-ylamino)-2-(2-methyl-3-(4-methylthiazol-2-yl)propanamido)-3-oxopropylcarbamate]
< 4.00 | Cc1cc(C)n(CC(N)C(=O)NC(CNC(=O)OC(C)(C)C)C(=O)NC(CC(C)C)C(O)CC(C)C(=O)NC(C(=O)NCC(C)C)C(C)C)n1 (stereo not drawn) [tert-butyl 2-(2-amino-3-(3,5-dimethyl-1H-pyrazol-1-yl)propanamido)-3-(5-hydroxy-8-(1-(isobutylamino)-3-methyl-1-oxobutan-2-ylamino)-2,7-dimethyl-8-oxooctan-4-ylamino)-3-oxopropylcarbamate]
> 5.22 | Cc1nc(CC(C)C(=O)NC(CNC(=O)OC(C)(C)C)C(=O)NC(CC(C)C)C(O)CC(C)C(=O)NC(C(=O)NCC(C)C)C(C)C)c(C)o1 (stereo not drawn) [tert-butyl 2-(3-(2,5-dimethyloxazol-4-yl)-2-methylpropanamido)-3-(5-hydroxy-8-(1-(isobutylamino)-3-methyl-1-oxobutan-2-ylamino)-2,7-dimethyl-8-oxooctan-4-ylamino)-3-oxopropylcarbamate]
